Experiment [1] relates to Panc1 cells. Nature of the experiment: Cell viability (Presto Blue assay), Panc1. The class given is cell-based, human. The method, then:
(§1) Cells were plated in 96-well plates (2.5 × 10^4 cells/well) and treated with GET-FYLIR (0–50 μM) for 24 h. Cells were also treated with GET-Scrambled as a control. After treatment, cells were washed with PBS and then incubated for 15 min at 37 °C with a 100-μl Presto Blue solution (10% Presto Blue, Invitrogen in Hanks' balanced salt solution, Sigma). Change in the fluorescence was measured using a plate reader with the excitation/emission wavelengths set at 560/590 nm (Infinite® 200 PRO, TECAN), with untreated cells used as a control. All data sets were combined for the statistical analysis. A Sidak's multiple comparisons test was applied. N refers to the number of biological replicates.

Experiment [2] deals with NIH3T3 cells. Nature of the experiment: Cell cycle analysis (propidium iodide, flow cytometry), NIH3T3. The class given is cell-based. The note with it: NIH3T3, 20 μM, 24 h, n = 5. As for the experimental part:
(§2) Cells were plated in 24-well plates (1 × 10^5 cells/well) and treated with GET-FYLIR (20 μM) for 24 h. The cells were treated with trypsin, detached from the plate, and centrifuged at 200 × g for 5 min. The supernatant was aspirated, and the cells were resuspended in PBS. The cells were fixed in 70% ethanol for 1 h at 4 °C. The cells were washed with PBS and incubated in propidium iodide staining solution (0.1% (v/v) Triton X-100, 10 μg/ml propidium iodide (Sigma), and 100 μg/ml DNase-free RNase A in PBS) for 30 min at room temperature. Cells were analyzed using an FC500 flow cytometer (Beckman Coulter) equipped with a 488-nm laser, and data from at least 10,000 cells were acquired for each sample. Cells were gated based on forward and side scatter, and doublets excluded by height/area analysis. Cell cycle percentages were calculated by curved fit using Weasel Version 3.0 (Walter and Eliza Hall Institute of Medical Research). Data shown are representative. All data sets were combined for the statistical analysis. A Sidak's multiple comparisons test was applied. N refers to the number of biological replicates. All curves and statistical analyses were produced using Prism 7 (GraphPad Software).
For orientation: In flow cytometry, cells or beads pass a laser one at a time.

For experiment [3], the system named is U87 cells. Briefly: Cell viability (Presto Blue assay), U87. The class given is cell-based, human. The following applies: 24 h, n = 3. The method, then: as §1
Experiment [4] has as its system HeLa cells. Nature of the experiment: Confocal microscopy, intracellular localization. The class given is cell-based, human. The note with it: 10 μM, 24 h, confocal imaging. The method, then: HeLa cells were plated onto 10-mm diameter glass coverslips (1 × 10^5 cells/coverslip). Cells treated with GET-FYLIR were fixed for 10 min in 3.7% (w/v) paraformaldehyde (Sigma), stained with 1 μg/ml Hoechst 33342 (Molecular Probes) for a further 10 min, washed, and mounted. Cells were imaged using an LSM880C confocal microscope (Zeiss, Germany). A ×63 objective lens was used with a […] laser used for Hoechst 33342 and a 561-nm DPSS laser for GET-FYLIR–transduced cells. Images were captured and processed using ZEN software (Zeiss, Germany).

Experiment [5] concerns NIH3T3 cells. Briefly: Cell viability (Presto Blue assay), NIH3T3. The note with it: for cell viability: 24 h, Presto Blue, n = 3. The class given is cell-based. The method, then:
as §1

In experiment [6] the test system is NIH3T3 cells. Nature of the experiment: Cell uptake (flow cytometry), NIH3T3. The class given is cell-based. The following applies: compared with Panc1, flow cytometry. As for the experimental part:
(§3) Cells treated with GET-FYLIR or GET-Scrambled were analyzed on an Astrios cell sorter using a 488-nm […] laser (40,000 cells; gated on live cells by forward/side scatter). Gmean was used as the average cell intensity. All data sets were combined for the statistical analysis. A Sidak's multiple comparisons test was applied. N refers to the number of biological replicates.

Experiment [7] deals with Panc1 cells. Briefly: Cell uptake (flow cytometry), Panc1. The class given is cell-based, human. The following applies: 1 h and 24 h, compared with NIH3T3, flow cytometry. The method, then:
as §3

In experiment [8] the test system is KNS-42, U87, HeLa, MCF7, Panc1, NIH3T3 and BJ6 cell lines. Briefly: Cellular delivery by GET system. The class given is cell-based. The note with it: TAMRA-tagged peptide. The text has this:
We next evaluated the effect of the FYLIR peptide ligand on cells in culture. The novel GET system, developed for highly efficient nucleic acid, protein and peptide delivery ([35]), was used to deliver the FYLIR peptide. GET is based on the use of cell-penetrating peptides modified with heparin-binding sequences, which enhance cellular uptake by endocytosis. The synthetic peptide, GET-FYLIR, designed for these studies harbored an N-terminal TAMRA fluorescent tag, for easy visualization, fused to the GET (P21 and 8 Arg ([35])) and FYLIR sequences. […] Having established efficient delivery, the peptide's effect was investigated by assessing cell viability.

Experiment [9] has as its system Panc1 cells. Nature of the experiment: Cell cycle analysis (propidium iodide, flow cytometry), Panc1. The class given is cell-based, human. The following applies: Panc1, 20 μM, 24 h, p < 0.0001, n = 7. As for the experimental part: as §2
Experiment [10] concerns BJ6 human dermal fibroblasts. Nature of the experiment: Cell viability (Presto Blue assay), BJ6. The class given is cell-based. The following applies: 24 h; for cell viability: n = 3. The method, then: as §1
The test system of experiment [11] is Panc1 cells. The following applies: cited from earlier work. From the text: (§4) Several reports link USP11 to cell cycle progression and proliferation, although the detailed mechanisms are only partially understood. For example, (i) cell growth assays in MCF-7 and MDA-MB-231 cells show an increase in cell numbers upon USP11 overexpression, whereas USP11 knockdown leads to growth inhibition ([48]); (ii) USP11 itself is under cell cycle control and turns over rapidly in G1 cells, especially upon DNA damage induction, whereas expression of USP11 in S phase is high and insensitive to DNA damage ([12]). Knockdown of USP11 results in the activation of DNA damage-response pathwa ...

Experiment [12] concerns USP11. The following applies: cited from earlier work.
Source text: as §4

*: point of attachment. 5TAMRA = CN(C)c1ccc2c(c1)Oc1cc(N(C)C)ccc1C21OC(=O)c2cc(C(=O)*)ccc21

This is an account of results in paper PMC6333900, “Discovery of peptide ligands targeting a specific ubiquitin-like domain–binding site in the deubiquitinase USP11” (The Journal of Biological Chemistry, 2018).

For the molecule “5TAMRA-KRKKKGKGLGKKRDPCLRKYKRRRRRRRRAEGEFYKLKIRTPR-NH2 [GET-FYLIR]”, the cell viability effects result is given as “cell viability effects in Panc1 but not NIH3T3 cells were observed” in experiment [1] (Panc1, 5 μM, uptake experiment, 1 and 24 h); “cell viability effects in Panc1 but not NIH3T3 cells were observed” in experiment [5] (NIH3T3, 5 μM, uptake experiment, 1 and 24 h). Besides, the loss of viability in [1] (Panc1, 10 μM, 24 h, Presto Blue, n = 3 biological repeats) is ~50%. In addition, the “sensitivity to dose (viability)” value in [1] (Panc1, up to 50 μM, 24 h, Presto Blue) is on record as “particularly sensitive”; in experiment [10] (BJ6, up to 50 μM) it was “relatively insensitive”. The “subG0 fraction” value in experiment [2] (from 0.2% untreated, not significant, p = 0.9992) is recorded as 0.8%; in experiment [9] (from 0.9% untreated), 8%. In addition, the “fraction of cells in S phase” value in experiment [2] (from 24.8% untreated, p < 0.0001) is recorded as 37.5%; in [9] (from 36.9% untreated), 52.8%. The cell viability entry in [3] (U87, 10 μM) is “retained”; in [3] (U87, 20 μM), “minimal effect”; in [5] (NIH3T3, 10 μM), “retained”; in experiment [5] (NIH3T3, 20 μM) it was “minimal effect”; in experiment [10] (BJ6, 10 μM) it was “retained”; in experiment [10] (BJ6, 20 μM), “minimal effect”. In experiment [4], the endosomal escape result is “efficiently escapes endosomal vesicles”. In addition, in [4], the subcellular localization result was “both the cell cytoplasm and the nucleus, with the highest accumulation in nucleoli”. Also, the cell uptake entry was “little difference in cell uptake in either cell type” in experiment [6] (NIH3T3, 1 μM, 1 h and 24 h); “significantly lower than Panc1 cells” in experiment [6] (NIH3T3, 5 μM, both incubation times); “little difference in cell uptake in either cell type” in experiment [7] (Panc1, 1 μM); “increased uptake in Panc1 cells for both 1- and 24-h incubations” in experiment [7] (Panc1, 5 μM). Further, the cellular delivery entry in [8] is on record as “efficiently delivered to all cell lines tested”. Moreover, the “fold increase of subG0 fraction” value in [9] (versus untreated) was ~9 fold.

In the case of `O=C1c2c(O)ccc(O)c2C(=O)c2c(NCCNCCO)ccc(NCCNCCO)c21` [mitoxantrone], the cell death result in [11] is “dose-dependent cell death”. For the same molecule, in experiment [12], the USP11 inhibition entry is “inhibits USP11”.
